# From patent US20090238808A1, “Process for the identification of novel enzyme interacting compounds” (priority 2005, published 2009)
# Tests used:
# Experiment in all cases: Kinobeads elution with test compound, mouse brain lysate, MS
# Assay type in all cases: binding
# Conditions in all cases: kinase released from kinobeads by specific elution
# BRAFps = system: BRAFps
# In short: (§1)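 Proteins captured from mouse brain lysate onto kinobeads are displaced with unmodified compound at 1.0 mM (30 min, 4° C), with 2% DMSO or DMF buffer as the control. Eluted proteins are identified by mass spectrometry after gel separation.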
# NEK9 = molecular target: T1, NEK9 (Mus musculus, UniProt Q8K1R7)
# T1 construct: from tissue; host or cells: mouse brain
# In short: as §1
# LIMK1ps = system: LIMK1ps
# In short: as §1
# AMPKa1 = AMPKa1 (Mus musculus, UniProt Q5EG47)
# In short: as §1
# PAK5 = molecular target: T2, PAK5 (Mus musculus, UniProt Q8C015)
# T2 construct: from tissue; host or cells: mouse brain
# In short: as §1
# PKCa = molecular target: T3, PKCa (Mus musculus, UniProt P20444)
# T3 construct: from tissue; host or cells: mouse brain
# In short: as §1
# PKCg = molecular target: T4, PKCg (Mus musculus, UniProt P63318)
# T4 construct: from tissue; host or cells: mouse brain
# In short: as §1
# TBK1 = molecular target: T5, TBK1 (Mus musculus, UniProt Q9WUN2)
# T5 construct: from tissue; host or cells: mouse brain
# In short: as §1
# LYN = molecular target: T6, LYN (Mus musculus, UniProt P25911)
# T6 construct: from tissue; host or cells: mouse brain
# In short: as §1
# ALK2 = ALK2 (Mus musculus, UniProt P37172)
# In short: as §1
# QSK = molecular target: T7, QSK (Mus musculus, UniProt Q6P4S6)
# T7 construct: from tissue; host or cells: mouse brain
# In short: as §1
# T2 sequence (Q8C015 whole entry): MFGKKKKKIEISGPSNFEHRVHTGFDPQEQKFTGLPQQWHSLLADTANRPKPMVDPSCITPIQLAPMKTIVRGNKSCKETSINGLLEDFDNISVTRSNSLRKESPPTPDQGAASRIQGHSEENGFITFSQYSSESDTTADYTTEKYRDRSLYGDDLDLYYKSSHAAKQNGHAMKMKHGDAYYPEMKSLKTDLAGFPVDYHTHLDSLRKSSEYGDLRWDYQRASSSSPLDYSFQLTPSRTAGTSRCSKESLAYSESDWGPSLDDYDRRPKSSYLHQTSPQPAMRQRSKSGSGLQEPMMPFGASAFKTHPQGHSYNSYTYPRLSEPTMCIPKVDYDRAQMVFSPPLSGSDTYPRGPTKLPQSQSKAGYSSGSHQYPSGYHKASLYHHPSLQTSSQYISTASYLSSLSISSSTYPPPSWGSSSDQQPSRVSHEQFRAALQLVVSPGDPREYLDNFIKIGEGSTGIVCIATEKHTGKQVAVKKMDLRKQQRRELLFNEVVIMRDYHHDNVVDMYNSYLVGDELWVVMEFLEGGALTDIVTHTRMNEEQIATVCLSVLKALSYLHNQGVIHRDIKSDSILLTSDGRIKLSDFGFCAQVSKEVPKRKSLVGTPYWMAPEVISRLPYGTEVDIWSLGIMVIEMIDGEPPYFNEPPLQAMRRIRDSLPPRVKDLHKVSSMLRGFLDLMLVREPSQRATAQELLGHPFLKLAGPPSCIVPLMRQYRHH
# T6 sequence (P25911 whole entry): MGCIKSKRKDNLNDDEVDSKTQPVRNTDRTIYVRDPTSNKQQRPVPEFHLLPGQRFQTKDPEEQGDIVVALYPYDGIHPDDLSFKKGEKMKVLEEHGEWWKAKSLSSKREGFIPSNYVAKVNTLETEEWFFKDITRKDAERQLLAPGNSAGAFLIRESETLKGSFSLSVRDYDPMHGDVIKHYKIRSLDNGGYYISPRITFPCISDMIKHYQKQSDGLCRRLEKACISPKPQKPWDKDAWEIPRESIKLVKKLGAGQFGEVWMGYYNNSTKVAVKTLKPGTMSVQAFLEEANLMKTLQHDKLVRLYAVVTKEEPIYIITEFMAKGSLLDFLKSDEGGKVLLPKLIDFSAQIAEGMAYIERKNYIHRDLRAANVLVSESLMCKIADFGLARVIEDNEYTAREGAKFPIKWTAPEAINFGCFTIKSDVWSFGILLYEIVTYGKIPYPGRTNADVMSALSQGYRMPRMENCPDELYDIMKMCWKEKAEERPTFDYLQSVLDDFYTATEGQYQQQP
# T1 sequence (Q8K1R7 whole entry): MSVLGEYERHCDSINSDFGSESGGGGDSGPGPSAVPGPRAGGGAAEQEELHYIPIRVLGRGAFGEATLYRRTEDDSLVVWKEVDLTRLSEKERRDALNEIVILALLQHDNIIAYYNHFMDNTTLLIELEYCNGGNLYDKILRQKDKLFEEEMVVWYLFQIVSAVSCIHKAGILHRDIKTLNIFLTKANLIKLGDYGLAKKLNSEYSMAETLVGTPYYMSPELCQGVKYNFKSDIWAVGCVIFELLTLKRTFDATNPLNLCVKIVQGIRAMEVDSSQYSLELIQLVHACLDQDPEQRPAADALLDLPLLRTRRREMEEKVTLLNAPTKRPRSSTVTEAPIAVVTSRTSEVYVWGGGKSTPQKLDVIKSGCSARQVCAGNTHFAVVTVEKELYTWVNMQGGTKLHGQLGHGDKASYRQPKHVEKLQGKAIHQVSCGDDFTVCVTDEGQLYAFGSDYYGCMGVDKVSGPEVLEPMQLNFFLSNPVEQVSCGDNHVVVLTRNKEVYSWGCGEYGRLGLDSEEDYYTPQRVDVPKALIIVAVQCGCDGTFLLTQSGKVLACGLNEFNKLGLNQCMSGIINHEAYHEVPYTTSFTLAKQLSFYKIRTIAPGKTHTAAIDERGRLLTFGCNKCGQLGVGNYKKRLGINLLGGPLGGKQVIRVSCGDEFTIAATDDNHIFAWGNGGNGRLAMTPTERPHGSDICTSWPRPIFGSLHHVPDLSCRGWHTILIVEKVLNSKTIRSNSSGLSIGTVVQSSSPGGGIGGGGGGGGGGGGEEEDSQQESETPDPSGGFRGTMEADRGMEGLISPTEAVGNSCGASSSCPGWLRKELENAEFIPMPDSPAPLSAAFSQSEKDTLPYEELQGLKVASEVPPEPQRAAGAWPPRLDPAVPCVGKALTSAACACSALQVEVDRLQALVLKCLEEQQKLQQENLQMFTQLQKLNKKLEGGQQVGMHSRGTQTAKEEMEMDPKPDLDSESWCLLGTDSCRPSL
# AMPKa1, sequence (Q5EG47 whole entry): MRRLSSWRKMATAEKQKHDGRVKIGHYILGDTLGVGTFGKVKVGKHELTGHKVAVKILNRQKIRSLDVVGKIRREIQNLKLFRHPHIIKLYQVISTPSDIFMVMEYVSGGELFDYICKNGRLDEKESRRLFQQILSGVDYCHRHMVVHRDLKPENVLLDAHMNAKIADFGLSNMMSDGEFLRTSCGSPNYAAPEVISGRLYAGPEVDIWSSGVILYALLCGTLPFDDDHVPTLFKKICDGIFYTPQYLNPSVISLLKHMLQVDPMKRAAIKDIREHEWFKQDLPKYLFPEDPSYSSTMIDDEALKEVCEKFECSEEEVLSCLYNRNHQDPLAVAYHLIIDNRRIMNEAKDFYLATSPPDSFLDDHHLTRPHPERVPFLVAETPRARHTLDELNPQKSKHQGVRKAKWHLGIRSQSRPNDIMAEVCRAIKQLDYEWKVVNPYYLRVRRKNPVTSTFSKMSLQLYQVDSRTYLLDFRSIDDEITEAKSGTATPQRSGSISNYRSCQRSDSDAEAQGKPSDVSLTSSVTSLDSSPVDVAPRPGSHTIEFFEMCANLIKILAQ
# AMPKa1, sequence (Q9R078 2-270 partner limits assumed): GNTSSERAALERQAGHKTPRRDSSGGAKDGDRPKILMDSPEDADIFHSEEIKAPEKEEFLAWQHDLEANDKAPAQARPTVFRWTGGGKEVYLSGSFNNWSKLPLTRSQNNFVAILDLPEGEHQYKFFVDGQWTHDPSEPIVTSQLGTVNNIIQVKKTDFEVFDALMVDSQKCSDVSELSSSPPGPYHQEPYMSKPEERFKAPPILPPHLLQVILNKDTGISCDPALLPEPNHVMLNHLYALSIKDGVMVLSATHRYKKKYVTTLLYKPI
# AMPKa1, sequence (O54950 whole entry partner): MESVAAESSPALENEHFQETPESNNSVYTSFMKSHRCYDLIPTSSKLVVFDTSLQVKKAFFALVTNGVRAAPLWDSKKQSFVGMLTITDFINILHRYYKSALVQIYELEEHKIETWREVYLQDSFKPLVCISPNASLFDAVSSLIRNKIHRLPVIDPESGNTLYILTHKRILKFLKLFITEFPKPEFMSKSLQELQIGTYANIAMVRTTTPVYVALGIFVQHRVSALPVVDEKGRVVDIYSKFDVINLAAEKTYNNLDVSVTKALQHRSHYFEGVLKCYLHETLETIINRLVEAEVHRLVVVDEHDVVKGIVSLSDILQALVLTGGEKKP
# T5 sequence (Q9WUN2 whole entry): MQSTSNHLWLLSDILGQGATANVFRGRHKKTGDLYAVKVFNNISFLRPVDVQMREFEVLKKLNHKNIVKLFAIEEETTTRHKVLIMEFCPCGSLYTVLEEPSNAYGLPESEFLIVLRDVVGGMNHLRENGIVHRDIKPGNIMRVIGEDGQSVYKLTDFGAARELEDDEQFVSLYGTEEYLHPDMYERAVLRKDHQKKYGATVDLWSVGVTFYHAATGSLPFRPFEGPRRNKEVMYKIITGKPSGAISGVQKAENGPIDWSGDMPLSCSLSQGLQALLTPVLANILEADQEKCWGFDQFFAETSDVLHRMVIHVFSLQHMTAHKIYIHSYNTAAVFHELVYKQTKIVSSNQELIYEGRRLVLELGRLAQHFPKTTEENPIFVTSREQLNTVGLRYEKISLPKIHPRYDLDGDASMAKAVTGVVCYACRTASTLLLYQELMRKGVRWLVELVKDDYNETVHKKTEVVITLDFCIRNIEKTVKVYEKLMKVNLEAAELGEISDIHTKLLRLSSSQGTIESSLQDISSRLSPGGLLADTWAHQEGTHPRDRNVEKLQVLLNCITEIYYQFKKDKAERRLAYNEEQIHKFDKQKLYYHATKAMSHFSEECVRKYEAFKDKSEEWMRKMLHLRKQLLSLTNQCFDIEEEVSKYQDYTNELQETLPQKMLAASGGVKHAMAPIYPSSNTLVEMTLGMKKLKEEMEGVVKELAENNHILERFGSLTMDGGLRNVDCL
compound,measurement,setting,value
Cn1c(=O)c(-c2c(Cl)cccc2Cl)cc2cnc(Nc3ccc(CN)cc3)cc21 [CZC7324],"mass spectrometry score, BRAFps",BRAFps,70
same,"number of identified peptides, BRAFps",BRAFps,4
NCc1ccc(Nc2ncc(F)c(Nc3ccccc3)n2)cc1 [CZC00008004],"mass spectrometry score, NEK9",NEK9,61
same,"number of identified peptides, NEK9",NEK9,2
same,"mass spectrometry score, LIMK1ps",LIMK1ps,186
same,"number of identified peptides, LIMK1ps",LIMK1ps,4
same,"mass spectrometry score, AMPKa1",AMPKa1,64
same,"number of identified peptides, AMPKa1",AMPKa1,2
CNC1CC2OC(C)(C1OC)n1c3ccccc3c3c4c(c5c6ccccc6n2c5c31)C(=O)NC4 (stereo not shown) [CZC9280],"mass spectrometry score, PAK5",PAK5,64
same,"number of identified peptides, PAK5",PAK5,1
same,"mass spectrometry score, PKCa",PKCa,64
same,"number of identified peptides, PKCa",PKCa,1
same,"mass spectrometry score, PKCg",PKCg,53
same,"number of identified peptides, PKCg",PKCg,1
same,"mass spectrometry score, TBK1",TBK1,48
same,"number of identified peptides, TBK1",TBK1,1
CCCCCCCCCCCCOS(=O)(=O)[O-].[Na+] [SDS],"mass spectrometry score, LYN",LYN,134
same,"number of identified peptides, LYN",LYN,6
same,"mass spectrometry score, ALK2",ALK2,65
same,"number of identified peptides, ALK2",ALK2,2
same,"mass spectrometry score, QSK",QSK,153
same,"number of identified peptides, QSK",QSK,7
